Molecular target: T1, ASCT2 (alanine serine cysteine transporter 2) (Rattus norvegicus, UniProt D3ZJ25)
T1 sequence (D3ZJ25 1-555): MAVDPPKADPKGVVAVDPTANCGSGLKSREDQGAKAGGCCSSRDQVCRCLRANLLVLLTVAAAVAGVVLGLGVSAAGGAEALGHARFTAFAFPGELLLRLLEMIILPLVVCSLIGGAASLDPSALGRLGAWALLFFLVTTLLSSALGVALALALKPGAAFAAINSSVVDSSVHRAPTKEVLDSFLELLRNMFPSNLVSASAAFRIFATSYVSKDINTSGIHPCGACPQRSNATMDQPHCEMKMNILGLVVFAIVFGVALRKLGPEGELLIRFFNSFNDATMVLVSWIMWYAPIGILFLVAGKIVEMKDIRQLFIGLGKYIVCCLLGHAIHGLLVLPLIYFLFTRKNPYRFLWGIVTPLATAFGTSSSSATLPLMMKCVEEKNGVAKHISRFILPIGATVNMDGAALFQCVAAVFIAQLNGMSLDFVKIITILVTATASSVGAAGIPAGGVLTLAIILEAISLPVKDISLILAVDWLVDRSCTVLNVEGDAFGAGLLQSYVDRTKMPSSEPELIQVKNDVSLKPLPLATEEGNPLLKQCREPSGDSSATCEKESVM
Assay: whole-cell voltage clamp: alanine-induced anion currents
Assay type: cell-based

Structure (SMILES): C[C@H](N)C(=O)O [alanine]
- Km: 160 ± 50 µM

Reference: publication PMC3664696 (The Journal of General Physiology, 2013)
